Measured values published in PMC3206016, “Putting into Practice Domain-Linear Motif Interaction Predictions for Exploration of Protein Networks” (PLoS ONE, 2011).
Several values for one entry are separate records, joined by “and”; a condition that tells them apart may be missing. Equal values may be shown once. Read-outs that look alike come from different tables or passages of the source. Ends that are not written are not given here. Peptide text beside a SMILES is read from it. * marks the point of attachment. Biotin = O=C1N[C@H]2[C@H](CS[C@H]2CCCCC(=O)*)N1

Legend:
Assay in all cases: SPR binding of MBP-PDZ analyte to immobilised biotinylated peptides
[1] = target: T1, MAGI1-2/6 PDZ domain (Mus musculus, UniProt Q6RHR9); details: for norm. RU at 10 µM: SPR Req at 10 µM MBP-PDZ, normalised for analyte molecular weight and immobilised ligand
T1 construct: The cDNA encoding residues 448–572 and 613–752 of mouse MAGI-1 (UniProt acc.: Q6RHR9-1) encoding for MAGI1-2/6; made in house; host or cells: E. coli BL21 DE3
Method: (§1) We opted for the surface plasmon resonance (SPR) method to measure these 190 (19 proteins×2 peptide versions×5 PDZ constructs) interactions. In SPR various concentrations of “analytes” (here, PDZ domains fused to the Maltose Binding Protein (MBP)) flow over surfaces presenting attached “ligands” (here, biotinylated peptides). The amount of analyte interacting with the ligand is measured and quantified in response units (RU). The intensity of this signal is proportional to the binding strength of the assayed interaction (Figure 5A). K [drawing 13] were obtained using a 1∶1 interaction model. However, these calculated K [drawing 14] were rather inaccurate especially for weak interactions. Therefore, we preferred to rank the binding strengths of the 190 interactions using normalised RU signals at equilibrium ( [drawing 15] ) rather than K [drawing 16] (see Methods for details). These normalised [drawing 17] values were plotted in form of a heat map (Figure 5B).
(§2) The cDNA encoding residues 448–572 and 613–752 of mouse MAGI-1 (UniProt acc.: Q6RHR9-1) encoding for MAGI1-2/6 (100% identical to human MAGI1-2/6) and MAGI1-3/6 (99% identical to human MAGI1-3/6) PDZ domains, respectively, were inserted into the NcoI/KpnI sites of the pETM-41 expression vector (EMBL) containing a 6×His-MBP tag followed by a TEV protease cleavage site. A similar cloning strategy was adopted for cDNA bearing residues 997–1093, 1097–1193 and 997–1193 of human SCRIB (Uniprot acc.: Q14160-1) encoding for SCRIB-3/4, SCRIB-4/4 PDZ domains and SCRIB-34/4 tandem PDZ construct, respectively.
(§3) Data were collected on a Biacore 2000 instrument (Biacore AB/GE Healthcare Bio-Sciences Corp., Piscataway, NJ, USA) at 25 [drawing 74] C. SPR experiments (ligand immobilisation and binding measurements) have been performed as described in Fournane et al.. Briefly, biotinylated peptides (instead of GST-fused recombinant peptides) were immobilised on CM5 sensorchips on which Neutravidin was previously attached. The MBP-PDZ domain analyte was injected at 8 to 10 different concentrations ranging from 0 up to 30 [drawing 75] M. Data were processed using the BiaEvaluation 3.2 software (Biacore AB/GE Healthcare Bio-Sciences Corp.) using “double referencing” [78] in which sensorgrams were corrected for buffer effects and bulk refractive index changes.
(§4) The steady-state binding signal ( [drawing 76] ) was derived by averaging the signals in a five second window at equilibrium. Steady-state analysis was performed by fitting the average signal [drawing 77] as a function of total MBP-PDZ concentrations, assuming a simple 1∶1 interaction binding isotherm model. […] Reasons for this inaccuracy are likely to be the following: 1. As previously described, several repetitions of all the measurements are required to determine accurate K [drawing 81] . In our case, such repetitions were not achievable in reasonable time due to the large amount of interactions measured in this study. 2. The highest injected analyte concentration restricts the maximal K [drawing 82] (weakest interaction) that can be accurately obtained. 3. A K [drawing 83] is estimated based on a mathematical extrapolation of observed [drawing 84] signals leading to additional uncertainty. Based on these reasons, we considered the calculated K [drawing 85] not as accurate enough to be used for absolute binding strength comparison in this study. We rather performed a relative analysis of binding strengths using directly [drawing 86] signals which are not biased by any mathematical assumption. We focussed on [drawing 87] signals obtained at 10 [drawing 88] M MBP-PDZ concentration, which have been systematically measured in duplicate. The [drawing 89] signal is directly proportional to the molecular weight of the analyte and the amount of immobilised ligand. Therefore, the [drawing 90] signals were normalised taking those into account before being used for binding strength comparison. […]

[2] = target: T2, MAGI1-3/6 PDZ domain (Mus musculus, UniProt Q6RHR9); details: for norm. RU at 10 µM: SPR Req at 10 µM MBP-PDZ, normalised for analyte molecular weight and immobilised ligand; for Kd: SPR Biacore 2000, 25 C, steady state, 1:1 binding isotherm, MBP-PDZ 0-30 µM, to be considered with caution
T2 construct: The cDNA encoding residues 448–572 and 613–752 of mouse MAGI-1 (UniProt acc.: Q6RHR9-1); made in house; host or cells: E. coli BL21 DE3
Method: as §1, §2, §3, §4

[3] = target: T3, SCRIB-3/4 PDZ domain (Homo sapiens, UniProt Q14160); details: for norm. RU at 10 µM: SPR Req at 10 µM MBP-PDZ, normalised for analyte molecular weight and immobilised ligand; for Kd: SPR Biacore 2000, 25 C, steady state, 1:1 binding isotherm, MBP-PDZ 0-30 µM, to be considered with caution
T3 construct: cDNA bearing residues 997–1093, 1097–1193 and 997–1193 of human SCRIB (Uniprot acc.: Q14160-1); made in house; host or cells: E. coli BL21 DE3
T3 sequence (Q14160 997-1093 isoform Q14160-1): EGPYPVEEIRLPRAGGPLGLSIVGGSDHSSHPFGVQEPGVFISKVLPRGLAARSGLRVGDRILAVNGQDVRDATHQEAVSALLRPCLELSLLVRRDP
Method: as §1, §2, §3, §4

[4] = target: T4, SCRIB-34/4 tandem PDZ construct (Homo sapiens, UniProt Q14160); details: for norm. RU at 10 µM: SPR Req at 10 µM MBP-PDZ, normalised for analyte molecular weight and immobilised ligand; for Kd: SPR Biacore 2000, 25 C, steady state, 1:1 binding isotherm, MBP-PDZ 0-30 µM, to be considered with caution
T4 construct: residues 997–1093, 1097–1193 and 997–1193 of human SCRIB (Uniprot acc.: Q14160-1); made in house; host or cells: E. coli BL21 DE3
T4 sequence (Q14160 997-1193 isoform Q14160-1): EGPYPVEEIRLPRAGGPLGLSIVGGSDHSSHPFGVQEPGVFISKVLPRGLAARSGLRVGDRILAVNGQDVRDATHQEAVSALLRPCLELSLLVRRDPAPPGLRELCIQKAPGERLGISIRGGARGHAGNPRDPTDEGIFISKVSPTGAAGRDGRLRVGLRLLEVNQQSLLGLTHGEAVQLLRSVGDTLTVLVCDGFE
Method: as §1, §2, §3, §4

[5] = target: T5, SCRIB-4/4 PDZ domain (Homo sapiens, UniProt Q14160); details: for norm. RU at 10 µM: SPR Req at 10 µM MBP-PDZ, normalised for analyte molecular weight and immobilised ligand; for Kd: tentative KD, SPR Biacore 2000, 25 C, steady state, 1:1 binding isotherm, MBP-PDZ 0-30 µM, to be considered with caution
T5 construct: residues 997–1093, 1097–1193 and 997–1193 of human SCRIB (Uniprot acc.: Q14160-1); made in house; host or cells: E. coli BL21 DE3
T5 sequence (Q14160 1097-1193 isoform Q14160-1): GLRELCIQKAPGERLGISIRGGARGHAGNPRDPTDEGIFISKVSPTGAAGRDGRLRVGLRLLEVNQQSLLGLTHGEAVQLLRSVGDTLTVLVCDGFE
Method: as §1, §2, §3, §4

[6] = tentative KD, SPR Biacore 2000, 25 C, steady state, 1:1 binding isotherm, MBP-PDZ 0-30 µM, to be considered with caution

T2 sequence (Q6RHR9 613-752): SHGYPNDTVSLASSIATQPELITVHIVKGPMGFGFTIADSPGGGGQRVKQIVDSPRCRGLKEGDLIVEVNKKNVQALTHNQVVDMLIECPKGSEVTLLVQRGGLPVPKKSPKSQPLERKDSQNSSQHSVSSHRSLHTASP
T1 sequence (Q6RHR9 448-572): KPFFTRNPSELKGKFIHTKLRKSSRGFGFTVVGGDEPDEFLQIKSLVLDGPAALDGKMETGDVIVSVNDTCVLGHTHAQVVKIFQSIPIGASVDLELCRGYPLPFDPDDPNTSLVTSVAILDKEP

## EKPIDSETKM [GLAST_10, long peptide: last ten wild type C-terminal residues of Excitatory amino acid transporter 1, biotinylated]
[1]
  norm. RU at 10 µM: 0.0 RU
[2]
  norm. RU at 10 µM: 0.0 RU
[3]
  norm. RU at 10 µM: 0.0 RU
[4]
  norm. RU at 10 µM: 0.0 RU
[5]
  norm. RU at 10 µM: 0.0 RU

## CC(C)C[C@H](NC(=O)[C@@H](NC(=O)[C@H](CCC(=O)O)NC(=O)[C@H](CCCCN)NC(=O)CNC(=O)[C@H](C)NC(=O)CNC(=O)[C@H](CO)NC(=O)CNC(=O)CCCC[C@@H]1SC[C@@H]2NC(=O)N[C@@H]21)[C@@H](C)O)C(=O)N[C@H](C(=O)O)C(C)C [NET1_05] (Biotin-GSGAGKETLV-OH)
[2]; read-out: tentative KD
  Kd: 23 µM
[4]; read-out: tentative KD
  Kd: 15 µM

## PMESGICTIV [TTC24_10]
[2]; read-out: tentative KD
  Kd: 37 µM

## RSSRTRRETQV [16E6L/V, reference compound]
[2]; tentative KD
  Kd: 69 µM and 76 µM and 202 µM
[3]; tentative KD
  Kd: 18 µM and 41 µM and 32 µM
[4]; tentative KD
  Kd: 3 µM and 4 µM
[5]
  Kd: 47 µM and 55 µM

## GGWVEKETYY [ATP1A1_10]
[3]; read-out: tentative KD
  Kd: 88 µM

## VMRLQSETSV [VANG2_10]
[3]; read-out: tentative KD
  Kd: 12 µM
[4]; read-out: tentative KD
  Kd: 5 µM

## CC(C)C[C@H](NC(=O)[C@H](CCC(N)=O)NC(=O)[C@@H](NC(=O)[C@H](CCC(=O)O)NC(=O)[C@H](CCCNC(=N)N)NC(=O)[C@H](CCCNC(=N)N)NC(=O)[C@@H](NC(=O)[C@H](CCCNC(=N)N)NC(=O)[C@H](CO)NC(=O)[C@@H](N)CO)[C@@H](C)O)[C@@H](C)O)C(=O)O [16E6]
[1]; this study (Kd), Table S3, column this study, SPR
  Kd: 3 µM
[3]; tentative KD
  Kd: 18 µM and 15 µM
[4]; tentative KD
  Kd: 3 µM

## C[C@H](NC(=O)[C@@H](NC(=O)CCCC[C@@H]1SC[C@@H]2NC(=O)N[C@@H]21)[C@@H](C)O)C(=O)N[C@@H](CO)C(=O)N1CCC[C@H]1C(=O)N[C@@H](C)C(=O)N[C@@H](CCCCN)C(=O)N[C@@H](CCC(=O)O)C(=O)N[C@H](C(=O)N[C@@H](CO)C(=O)N[C@@H](Cc1ccccc1)C(=O)O)[C@@H](C)O [GLUT7_10] (Biotin-TASPAKETSF-OH)
[1]
  norm. RU at 10 µM: 0.0 RU
[2]
  norm. RU at 10 µM: 0.0 RU
[3]
  norm. RU at 10 µM: 57.5 RU
[4]
  norm. RU at 10 µM: 70.8 RU
[5]
  norm. RU at 10 µM: 0.0 RU

## CC(C)C[C@H](NC(=O)[C@H](CCC(N)=O)NC(=O)[C@@H](NC(=O)[C@H](CCC(=O)O)NC(=O)[C@H](CCCNC(=N)N)NC(=O)CNC(=O)[C@H](C)NC(=O)CNC(=O)[C@H](CO)NC(=O)CNC(=O)CCCC[C@@H]1SC[C@@H]2NC(=O)N[C@@H]21)[C@@H](C)O)C(=O)O [16E6_05] (Biotin-GSGAGRETQL-OH)
[1]; [6]
  Kd: 7 µM
[3]; tentative KD
  Kd: 12 µM
[4]; tentative KD
  Kd: 1 µM

## SGGKRKETLV [NET1_10]
[1]; Table S3, column this study, SPR, read-out: this study (Kd)
  Kd: 3 µM
[2]; read-out: tentative KD
  Kd: 37 µM

## CC(C)[C@H](NC(=O)[C@H](CCC(=O)O)NC(=O)[C@@H](NC(=O)[C@H](CCC(=O)O)NC(=O)[C@H](CCCNC(=N)N)NC(=O)CNC(=O)[C@H](C)NC(=O)CNC(=O)[C@H](CO)NC(=O)CNC(=O)CCCC[C@@H]1SC[C@@H]2NC(=O)N[C@@H]21)[C@@H](C)O)C(=O)O [TAX1_05] (Biotin-GSGAGRETEV-OH)
[1]; [6]
  Kd: 33 µM
[2]; tentative KD
  Kd: 75 µM
[3]; tentative KD
  Kd: 96 µM
[4]; tentative KD
  Kd: 1 µM
[5]
  Kd: 50 µM

## CC(C)[C@H](NC(=O)[C@@H](NC(=O)[C@@H](NC(=O)[C@H](CCC(=O)O)NC(=O)[C@H](CCCCN)NC(=O)[C@H](CO)NC(=O)[C@H](CC(N)=O)NC(=O)[C@H](CCCNC(=N)N)NC(=O)[C@H](CCCCN)NC(=O)[C@@H](NC(=O)CCCC[C@@H]1SC[C@@H]2NC(=O)N[C@@H]21)C(C)C)[C@@H](C)O)C(C)C)C(=O)O [MARCH3_10] (Biotin-VKRNSKETVV-OH)
[1]
  norm. RU at 10 µM: 54.7 RU
[2]
  norm. RU at 10 µM: 10.9 RU
[3]
  norm. RU at 10 µM: 22.7 RU
[4]
  norm. RU at 10 µM: 88.1 RU
[5]
  norm. RU at 10 µM: 0.0 RU
